Assay results published in US8415272B2, “Quinoline derivatives and their use as fungicides” (Syngenta Crop Protection LLC, priority 2008, dated 2013).

Tests used:
Pythium ultimum = test: Growth inhibition in potato dextrose broth, Pythium ultimum (damping off), photometric; type: cell-based; settings: Globisporangium ultimum, 24° C., 48 hours, read-out: control of fungal infection, Pythium ultimum
Outline: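 Growth inhibition was read photometrically at 48 hours after incubation at 24° C. Test compound was diluted from DMSO to 20 ppm in water and combined with potato dextrose broth seeded with Pythium ultimum mycelial fragments.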

[1] = tested on: Erysiphe graminis f.sp. tritici; test: Leaf disk assay, Erysiphe graminis f.sp. tritici (wheat powdery mildew), preventive; type: in vivo; settings: Blumeria graminis, foliar, 96 h, wheat leaf segments, assessed four days after inoculation, read-out: control of fungal infection, Erysiphe graminis f.sp. tritici
Outline: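 Preventive protocol: compound at 200 ppm in water (from DMSO) sprayed onto wheat leaf segments on agar, dried 12–24 h, then spore-inoculated. Fungicidal activity was assessed four days post-inoculation.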

Septoria tritici = test: Growth inhibition in nutrient broth, Septoria tritici (leaf blotch), photometric; type: cell-based; settings: Zymoseptoria tritici, PDB broth, 24 C, 72 hrs, read-out: control of fungal infection, Septoria tritici
Septoria nodorum = test: Leaf disk assay, Septoria nodorum (wheat glume blotch), preventive; type: in vivo; settings: Parastagonospora nodorum, foliar, 96 h, wheat leaf segments, assessed four days after inoculation, read-out: control of fungal infection, Septoria nodorum
Phytophthora infestans = test: whole plant or invertebrate; type: in vivo; settings: in Solanum lycopersicum, foliar, 96 h, read-out: control of fungal infection, Phytophthora infestans
Fusarium culmorum = test: Growth inhibition in nutrient broth, Fusarium culmorum (root rot), photometric; type: cell-based; settings: 48 h, read-out: control of fungal infection, Fusarium culmorum
Experimental: The compounds were tested in a leaf disk assay, with methods described below. The test compounds were dissolved in DMSO and diluted into water to 200 ppm. In the case of the test on Pythium ultimum, they were dissolved in DMSO and diluted into water to 20 ppm.
Fusarium culmorum (root rot): Conidia of the fungus from cryogenic storage were directly mixed into nutrient broth (PDB potato dextrose broth). After placing a (DMSO) solution of the test compounds into a microtiter plate (96-well format) the nutrient broth containing the fungal spores was added. The test plates were incubated at 24 C and the inhibition of growth was determined photometrically after 48 hrs.

[2] = tested on: Puccinia recondita f.sp. tritici; test: Leaf disk assay, Puccinia recondita f.sp. tritici (wheat brown rust), preventive; type: in vivo; settings: foliar, 216 h, wheat leaf segments, assessed nine days after inoculation, read-out: control of fungal infection, Puccinia recondita f.sp. tritici
Plasmopara viticola = test: Leaf disk assay, Plasmopara viticola (downy mildew of grapevine), preventive; type: in vivo; settings: foliar, 168 h, grapevine leaf disks, assessed seven days after inoculation, read-out: control of fungal infection, Plasmopara viticola

C#CCOCC#CC(C)(C)NC(=O)C(Oc1cc2cc(C#C)cnc2cc1F)SC (stereo not shown) [Example 198]
≥ 60%: inhibition of growth at 20 ppm (Pythium ultimum) | pest or weed control at 200 ppm [1] | inhibition of growth at 60 ppm (Septoria tritici) | pest or weed control at 200 ppm (Septoria nodorum) | pest or weed control at 200 ppm (Phytophthora infestans) | inhibition of growth at 60 ppm (Fusarium culmorum) | pest or weed control at 200 ppm [2] | pest or weed control at 200 ppm (Plasmopara viticola)

C#Cc1cnc2cc(F)c(OC(SC)C(=O)NC(C)(C)C#CCOCC=C)cc2c1 (stereo not shown) [Example 199]
≥ 60%: inhibition of growth at 20 ppm (Pythium ultimum) | pest or weed control at 200 ppm [1] | inhibition of growth at 60 ppm (Septoria tritici) | pest or weed control at 200 ppm (Septoria nodorum) | pest or weed control at 200 ppm (Phytophthora infestans) | inhibition of growth at 60 ppm (Fusarium culmorum) | pest or weed control at 200 ppm [2] | pest or weed control at 200 ppm (Plasmopara viticola)

C#Cc1cnc2cc(F)c(OC(SC)C(=O)NC(C)(C)COCC)cc2c1 (stereo not shown) [Example 200]
≥ 60%: inhibition of growth at 20 ppm (Pythium ultimum) | pest or weed control at 200 ppm [1] | inhibition of growth at 60 ppm (Septoria tritici) | pest or weed control at 200 ppm (Septoria nodorum) | pest or weed control at 200 ppm (Phytophthora infestans) | inhibition of growth at 60 ppm (Fusarium culmorum) | pest or weed control at 200 ppm [2] | pest or weed control at 200 ppm (Plasmopara viticola)

C#Cc1cnc2ccc(OC(SC)C(=O)NC(C)(C#CC)CC)cc2c1 (stereo not shown) [Example 204]
≥ 60%: inhibition of growth at 20 ppm (Pythium ultimum) | pest or weed control at 200 ppm [1] | inhibition of growth at 60 ppm (Septoria tritici) | pest or weed control at 200 ppm (Septoria nodorum) | pest or weed control at 200 ppm (Phytophthora infestans) | inhibition of growth at 60 ppm (Fusarium culmorum) | pest or weed control at 200 ppm [2] | pest or weed control at 200 ppm (Plasmopara viticola)

C#Cc1cnc2ccc(OC(SC)C(=O)NC3(C#C)CCCCC3)cc2c1 (stereo not shown) [Example 206]
≥ 60%: inhibition of growth at 20 ppm (Pythium ultimum) | pest or weed control at 200 ppm [1] | inhibition of growth at 60 ppm (Septoria tritici) | pest or weed control at 200 ppm (Septoria nodorum) | pest or weed control at 200 ppm (Phytophthora infestans) | inhibition of growth at 60 ppm (Fusarium culmorum) | pest or weed control at 200 ppm [2] | pest or weed control at 200 ppm (Plasmopara viticola)

C#CCNC(=O)C(Oc1ccc2ncc(C#C)cc2c1)SC (stereo not shown) [Example 208]
≥ 60%: inhibition of growth at 20 ppm (Pythium ultimum) | pest or weed control at 200 ppm [1] | inhibition of growth at 60 ppm (Septoria tritici) | pest or weed control at 200 ppm (Septoria nodorum) | pest or weed control at 200 ppm (Phytophthora infestans) | inhibition of growth at 60 ppm (Fusarium culmorum) | pest or weed control at 200 ppm [2] | pest or weed control at 200 ppm (Plasmopara viticola)

C#Cc1cnc2ccc(OC(SC)C(=O)NC3CC3)cc2c1 (stereo not shown) [Example 212]
≥ 60%: inhibition of growth at 20 ppm (Pythium ultimum) | pest or weed control at 200 ppm [1] | inhibition of growth at 60 ppm (Septoria tritici) | pest or weed control at 200 ppm (Septoria nodorum) | pest or weed control at 200 ppm (Phytophthora infestans) | inhibition of growth at 60 ppm (Fusarium culmorum) | pest or weed control at 200 ppm [2] | pest or weed control at 200 ppm (Plasmopara viticola)

C#Cc1cnc2ccc(OC(SC)C(=O)NC3CCC3)cc2c1 (stereo not shown) [Example 213]
≥ 60%: inhibition of growth at 20 ppm (Pythium ultimum) | pest or weed control at 200 ppm [1] | inhibition of growth at 60 ppm (Septoria tritici) | pest or weed control at 200 ppm (Septoria nodorum) | pest or weed control at 200 ppm (Phytophthora infestans) | inhibition of growth at 60 ppm (Fusarium culmorum) | pest or weed control at 200 ppm [2] | pest or weed control at 200 ppm (Plasmopara viticola)

C#Cc1cnc2ccc(OC(SC)C(=O)NC3CCCC3)cc2c1 (stereo not shown) [Example 214]
≥ 60%: inhibition of growth at 20 ppm (Pythium ultimum) | pest or weed control at 200 ppm [1] | inhibition of growth at 60 ppm (Septoria tritici) | pest or weed control at 200 ppm (Septoria nodorum) | pest or weed control at 200 ppm (Phytophthora infestans) | inhibition of growth at 60 ppm (Fusarium culmorum) | pest or weed control at 200 ppm [2] | pest or weed control at 200 ppm (Plasmopara viticola)

C#Cc1cnc2c(F)cc(OC(SC)C(=O)NC(C)(C)C#CCOC)cc2c1 (stereo not shown) [Example 218]
≥ 60%: inhibition of growth at 20 ppm (Pythium ultimum) | pest or weed control at 200 ppm [1] | inhibition of growth at 60 ppm (Septoria tritici) | pest or weed control at 200 ppm (Septoria nodorum) | pest or weed control at 200 ppm (Phytophthora infestans) | inhibition of growth at 60 ppm (Fusarium culmorum) | pest or weed control at 200 ppm [2] | pest or weed control at 200 ppm (Plasmopara viticola)

C#Cc1cnc2c(F)cc(OC(SC)C(=O)NC(C)C)cc2c1 (stereo not shown) [Example 222]
≥ 60%: inhibition of growth at 20 ppm (Pythium ultimum) | pest or weed control at 200 ppm [1] | inhibition of growth at 60 ppm (Septoria tritici) | pest or weed control at 200 ppm (Septoria nodorum) | pest or weed control at 200 ppm (Phytophthora infestans) | inhibition of growth at 60 ppm (Fusarium culmorum) | pest or weed control at 200 ppm [2] | pest or weed control at 200 ppm (Plasmopara viticola)
